Where two headings read alike, the source gives them in different places.
Test system: Escherichia coli (ATCC25922) or Staphylococcus aureus (ATCC25923)
Assay: Antibacterial MIC, microdilution method in Mueller-Hinton medium
Type: cell-based
Details: for MIC: Escherichia coli, 18 h, read-out: Potency (MIC)
Description: The antibacterial activity of the Formula I compounds was evaluated against standard bacterial strains by determining the minimal inhibitory concentration (MIC) to block growth. Each drug was assayed by the microdilution method in Mueller-Hinton medium, as recommended by the National Committee for Clinical Laboratory Standards. Approved Standard M7-A5: Methods for Dilution Antimicrobial Susceptibility Tests for Bacteria That Grow Aerobically 5th Ed. (National Committee for Clinical Laboratory Standards, Wayne, Pa., 2000). The tested bacterial strains included Escherichia coli (American Type Collection ATCC25922), Staphylococcus aureus (ATCC25923), and Pseudomonas aeruginosa (ATCC27853). Two-fold serial dilutions of each compound ranging from 64 to 0.5 μg/ml were tested in duplicate. The MIC was determined as the lowest concentration of each compound that prevented bacterial growth after 18 hours of incubation at 35° C. […] The mass of each compound in the Table was confirmed by LC-MS.

[1] = MIC in E. coli or S. aureus, two-fold serial dilutions 64 to 0.5 μg/ml in duplicate, 18 hours of incubation at 35° C.

Molecule	MIC [µg/mL]	also measured
Cc1ccc(S(=O)(=O)N(Cc2ccccc2)c2ccc(Nc3nc(N4C[C@H](N)C[C@H](N)C4)nc(N4CC[C@H](O)[C@@H]4CN)n3)c(O)c2)cc1	–	Potency (MIC) [1]: + (+ means MIC<64 μg/ml in E. coli or S. aureus)
Cl.O=C(Nc1ccc(Nc2nc(NCCCn3ccnc3)nc(N3CCCCC3)n2)cc1O)c1ccc(Cl)cc1	–	MIC [1]: < 64 µg/mL
N[C@@H]1C[C@H](N)CN(c2nc(Nc3ccc(NC(=O)c4ccc(Cl)cc4)c(O)c3)nc(NC3CCNCC3)n2)C1	< 16	–
7-[4-((2S,4S)-4-Amino-2-aminomethyl-pyrrolidin-11-yl)-6-((3R,5S)-3,5-diamino-piperidin-1-yl)-[1,3,5]triazin-2-ylamino]-4-methyl-chromen-2-one	–	Potency (MIC) [1]: − (− means MIC>64 μg/ml in E. coli or S. aureus)
Cl.NC1C[C@H](N)CN(c2nc(Nc3ccc(Br)c4ccccc34)nc(N3C[C@H](N)C[C@H](N)C3)n2)C1 (stereo in doubt) [N-(4-bromo-naphthalen-1-yl)-4,6-Bis-((3R,5S)-3,5-diamino-piperidin-1-yl)-[1,3,5]triazine-2-amine]	–	MIC [1]: < 64 µg/mL
Cl.NC1C[C@@H](N)CN(c2nc(Nc3ccc(O)cc3[N+](=O)[O-])nc(N3C[C@H](N)C[C@H](N)C3)n2)C1 (stereo in doubt) [N-(4-hydroxy-2-nitro-phenyl)-4,6-Bis-((3R,5S)-3,5-diamino-piperidin-1-yl)-[1,3,5]triazine-2-amine]	–	MIC [1]: > 64 µg/mL
Cl.NC1C[C@@H](N)CN(c2nc(Nc3ccc(NC(=O)c4cc(Cl)ccc4O)cc3)nc(N3C[C@H](N)C[C@H](N)C3)n2)C1 (stereo in doubt) [N-[4-(5-chloro-2-hydroxy-benzoylamino)-phenyl]-4,6-Bis-((3R,5S)-3,5-diamino-piperidin-1-yl)-[1,3,5]triazine-2-amine]	–	MIC [1]: < 16 µg/mL
Cl.N[C@@H]1C[C@H](N)CN(c2nc(N3C[C@H](N)C[C@H](N)C3)nc(-n3cnc4ccccc43)n2)C1 [1-(4,6-Bis-((3R,5S)-3,5-diamino-piperidin-1-yl)-[1,3,5]triazin-2-yl)-1H-benzoimidazole]	–	MIC [1]: > 64 µg/mL
NC1CCN(c2nc(N3C[C@H](N)C[C@H](N)C3)nc(N3C[C@H](N)C[C@H](N)C3)n2)CC1 [1-(4,6-Bis-((3R,5S)-3,5-diamino-piperidin-1-yl)-[1,3,5]triazin-2-yl)-piperidine-3-carboxylic aciddiethylamide]	–	MIC [1]: > 64 µg/mL
N[C@@H]1C[C@H](N)CN(c2cc(Nc3ccc(NC(=O)c4ccc5ccccc5c4O)cc3)cc(N3C[C@H](N)C[C@H](N)C3)n2)C1 [1-Hydroxy-naphthalene-2-carboxylic acid [4-(2,6-Bis-((3R,5S)-3,5-diamino-piperidin-1-yl)-pyridin-4-ylamino)-phenyl]-amide]	< 16	–
N[C@@H]1C[C@H](N)CN(c2nc(N3C[C@H](N)C[C@H](N)C3)c(Cl)c(Nc3ccc(NC(=O)c4ccc5ccccc5c4O)cc3)c2Cl)C1 [1-Hydroxy-naphthalene-2-carboxylic acid [4-(3,5-dichloro-2,6-Bis-((3R,5S)-3,5-diamino-piperidin-1-yl)-pyridin-4-ylamino)-phenyl]-amide]	< 16	–
N[C@@H]1C[C@H](N)CN(c2cc(Nc3ccc(NC(=O)c4ccc5ccccc5c4O)cc3)nc(N3C[C@H](N)C[C@H](N)C3)c2)C1 [1-Hydroxy-naphthalene-2-carboxylic acid [4-(4,6-Bis-((3R,5S)-3,5-diamino-piperidin-1-yl)-pyridin-2-ylamino)-phenyl]-amide]	< 16	–
NC[C@H]1[C@@H](O)CCN1c1nc(Nc2ccc(NC(=O)c3ccc4ccccc4c3O)cc2)nc(N2C[C@H](N)C[C@H](N)C2)n1 [1-Hydroxy-naphthalene-2-carboxylic acid {4-[4-((2S,3S)-2-aminomethyl-3-hydroxy-pyrrolidin-1-yl)-6-((3R,5S)-3,5-diamino-piperidin-1-yl)-[1,3,5]triazin-2-ylamino]-phenyl}-amide]	< 16	–
NC[C@@H]1C[C@H](N)CN1c1nc(Nc2ccc(NC(=O)c3ccc4ccccc4c3O)cc2)nc(N2C[C@H](N)C[C@H](N)C2)n1 [1-Hydroxy-naphthalene-2-carboxylic acid {4-[4-((2S,4S)-4-amino-2-aminomethyl-pyrrolidin-1-yl)-6-((3R,5S)-3,5-diamino-piperidin-1-yl)-[1,3,5]triazine-2-ylamino]-phenyl}-amide]	< 16	–
NC[C@@H]1CN(c2nc(Nc3ccc(NC(=O)c4ccc5ccccc5c4O)cc3)nc(N3C[C@H](N)C[C@H](N)C3)n2)CC[C@@H]1O [1-Hydroxy-naphthalene-2-carboxylic acid {4-[4-((3R,4S)-3-aminomethyl-4-hydroxy-piperidin-1-yl)-6-((3R,5S)-3,5-diamino-piperidin-1-yl)-[1,3,5]triazin-2-ylamino]-phenyl}-amide]	< 16	–
NC[C@@H]1C[C@H](CN)CN(c2nc(Nc3ccc(NC(=O)c4ccc5ccccc5c4O)cc3)nc(N3C[C@H](N)C[C@H](N)C3)n2)C1 [1-Hydroxy-naphthalene-2-carboxylic acid {4-[4-((3R,5S)-3,5-bis-(aminomethyl)-piperidin-1-yl)-6-((3R,5S)-3,5-diamino-piperidin-1-yl)-[1,3,5]triazine-2-ylamino]-phenyl}-amide]	< 16	–
N[C@@H]1C[C@H](N)CN(c2nc(Nc3ccc(NC(=O)c4ccc5ccccc5c4O)cc3)nc(N3C[C@@H](N)[C@@H](N)C3)n2)C1 [1-Hydroxy-naphthalene-2-carboxylic acid {4-[4-((3R,5S)-3,5-diamino-piperidin-1-yl)-6-((3R,4S)-3,4-diamino-pyrrolidin-1-yl)-[1,3,5]triazin-2-ylamino]-phenyl}-amide]	< 16	–
COc1nc(Nc2ccc(NC(=O)c3ccc4ccccc4c3O)cc2)nc(N2C[C@H](N)C[C@H](N)C2)n1 [1-Hydroxy-naphthalene-2-carboxylic acid {4-[4-((3R,5S)-3,5-diamino-piperidin-1-yl)-6-methoxy-[1,3,5]triazin-2-ylamino]-phenyl}-amide]	< 16	–
N[C@@H]1C[C@H](N)CN(c2nc(Nc3ccc(NC(=O)c4ccc5ccccc5c4O)cc3)nc(N3C[C@@H](O)[C@@H](O)C3)n2)C1 [1-Hydroxy-naphthalene-2-carboxylic acid {4-[4-((3S,5R)-3,5-diamino-piperidin-1-yl)-6-((3R,4S)-3,4-dihydroxy-pyrrolidin-1-yl)-[1,3,5]triazin-2-ylamino]-phenyl}-amide]	< 64	–
Cl.O=C(Nc1ccc(Nc2nc(N3CCCCC3)nc(N3CCCCC3)n2)cc1)c1ccc2ccccc2c1O [1-Hydroxy-naphthalene-2-carboxylic acid {4-[4-((3S,5R)-3,5-diamino-piperidin-12-yl)-6-((3R,5R)-3,5-dihydroxy-piperidin-1-yl)-[1,3,5]triazin-2-ylamino]-phenyl}-amide]	–	MIC [1]: < 64 µg/mL
NCCN(CCN)c1nc(Nc2ccc(NC(=O)c3ccc4ccccc4c3O)cc2)nc(N2C[C@H](N)C[C@H](N)C2)n1 [1-Hydroxy-naphthalene-2-carboxylic acid {4-[4-[bis-(2-amino-ethyl)-amino]-6-((3R,5S)-3,5-diamino-piperidin-1-yl)-[1,3,5]triazin-2-ylamino]-phenyl}-amide]	< 16	–
N[C@@H]1C[C@H](N)CN(c2ccc(NC(=O)c3ccc4ccccc4c3O)cc2)C1 [1-Hydroxy-naphthalene-2-carboxylicacid [4-((3S,5R)-3,5-diamino-piperidin-1-yl)-phenyl]-amide]	> 64	–
N[C@@H]1C[C@H](N)CN(c2cc(Nc3ccc(NC(=O)c4ccc5ccccc5c4O)cc3)nc(N3C[C@H](N)C[C@H](N)C3)n2)C1 [1-Hydroxy-naphthalene-2-carboxylicacid {4-[2-((3R,5S)-3,5-diamino-piperidin-1-yl)-6-((3S,5R)-3,5-diamino-piperidin-1-yl)-pyrimidin-4-ylamino]-phenyl}-amide]	< 16	–
NCCNc1nc(Nc2ccc(NC(=O)c3ccc4ccccc4c3O)cc2)nc(N2C[C@H](N)C[C@H](N)C2)n1 [1-Hydroxy-naphthalene-2-carboxylicacid {4-[4-(2-amino-ethylamino)-6-((3R,5S)-3,5-diamino-piperidin-1-yl)-[1,3,5]triazin-2-ylamino]-phenyl}-amide]	< 16	–
NC[C@@H]1C[C@@H](O)CN1c1nc(Nc2ccc(NC(=O)c3ccc4ccccc4c3O)cc2)nc(N2C[C@H](N)C[C@H](N)C2)n1 [1-Hydroxy-naphthalene-2-carboxylicacid {4-[4-((2S,4R)-2-aminomethyl-4-hydroxy-pyrrolidin-1-yl)-6-((3R,5S)-3,5-diamino-piperidin-1-yl)-[1,3,5]triazin-2-ylamino]-phenyl}-amide]	< 64	–
N[C@@H]1C[C@H](N)CN(c2nc(Nc3ccc(NC(=O)c4ccc5ccccc5c4O)cc3)nc(N3CCC[C@@H](O)C3)n2)C1 [1-Hydroxy-naphthalene-2-carboxylicacid {4-[4-((3S,5R)-3,5-diamino-piperidin-1-yl)-6-((R)-3-hydroxy-piperidin-1-yl)-[1,3,5]triazin-2-ylamino]-phenyl}-amide]	< 64	–
N[C@@H]1C[C@H](N)CN(c2ncnc(Nc3ccc(NC(=O)c4ccc5ccccc5c4O)cc3)n2)C1 [1-Hydroxy-naphthalene-2-carboxylicacid {4-[4-((3S,5R)-3,5-diamino-piperidin-1-yl)-[1,3,5]triazin-2-ylamino]-phenyl}-amide]	< 16	–

Reference: patent US7223759B2, “Antibacterial 3,5-diaminopiperidine-substituted aromatic and heteroaromatic compounds” (Anadys Pharmaceuticals, Inc., priority 2003, dated 2007)
